Test [1] has as its system isolated rat bladder strips. Briefly: Isolated rat bladder strip contraction. The conditions noted are these: strips precontracted with 20 mM KCl; for antagonism of the effects of retigabine on bladder strip contractions: 10 μM antagonist. The protocol:
Male Sprague-Dawley rats (200–400 grams) are euthanized by CO2 inhalation and exsanguination. Their urinary bladders are rapidly removed and placed in […] physiological salt solution (PSS) that contained the following (mM): NaCl (118.4), KCl (5), CaCl2 (2.5), MgSO4 (1.2), KH2PO4 (1.2), NaHCO3 (24.9) and D-glucose (11.1) gassed with O2/CO2 (95% /5%) to achieve a pH of 7.4. The dome of the bladder is isolated from the trigon region and this tissue is then cut into 4–5 mm wide by 10 mm long strips. One end is secured to the bottom of a water jacketed tissue bath and the other to a GRASS isometric force transducer (Grass Instruments, Quincy, Mass.). Tissues are pretensioned (0.25 to 0.5 grams), and after 30 minutes of equilibration are contracted with an additional 15 mM KCl (total of 20 mM) and again allowed to equilibrate until the preparations are contracting steadily. Any of a variety of compounds are administered directly into the tissue baths as sequential concentrations. Transducer signals are digitized (12 bit resolution) and analyzed on-line using a 586-based computer and custom software. The area under the contraction curve (AUC) is used as a measure of contractility since the spontaneous bladder contractions are irregular in amplitude and frequency. A 5-minute AUC value is taken 30 minutes after administration of each compound concentration to the tissue bath.
We isolated rat bladder strips from male Sprague-Dawley rats as previously described, (Wojdan, A., Freeden, C., Woods, M., Oshiro, G., Spinelli, W. et al., J Pharmacol Exp Therap 289: 1410–1418 (1999)) and precontracted them with 20 mM KCl. The KCNQ channel agonist retigabine, was added to the tissue bath in increasing concentrations, and area under the contraction curve was analyzed.
In another study, isolated rat bladder strips were precontracted with 60 mM KCl (FIG. 1).
The difference in IC50s between 20 and 60 mM KCl depolarizations are consistent with a potassium channel opening mechanism.
Rat bladder strips were isolated and prepared as previously described (Wojdan, A., Freeden, C., Woods, M., Oshiro, G., Spinelli, W. et al., J Pharmacol ExpTherap 289:1410–1418 (1999)). Preparations were contracted with either 20 or 60 mM KCl, or 200 nM carbachol. A five minute area under the contraction curve was acquired 20 minutes after addition of each concentration of retigabine using a 12 bit D/A and a 586 based personal computer running custom software. Message for KCNQ subunits was probed using quantitative rtPCR on an ABI PRISM 7700 Sequence Detection System (TAQMAN). Forward and reverse primers and TAQMAN probes were designed using published RNA sequences for human KCNQ1–5 and rat KCNQ 1–4 listed within the NCBI data base. Since no rat sequence for KCNQ5 were currently published, probes and primers were designed by BLAST analysis of rat Expressed Sequence Tags (EST) using the known mouse KNCQ5 sequence. From homologous EST sequences, a contiguous sequence of 384 base pairs was constructed. Probes and primers were designed against this sequence. BLAST analysis of our rat KCNQ5 probes and primer were selective for mouse and human KCNQ5 sequences. PCR products were confirmed by gel electrophoresis (data not shown). Cells for electrophysiology were prepared from rat bladder smooth muscle as previously described (Wojdan et al., 1999). Human bladder smooth muscle cells were obtained from Clonetics, San Diego, Calif. […]

For test [2], the system named is isolated rat bladder smooth muscle cell. Put plainly: Current clamp recording of resting membrane potential, rat cells. In kind it is cell-based. The text has this: (§1) Rat detrusor cells are isolated in a manner previously described for guinea-pig detrusor (Sheldon J H, Norton N W and Argentieri T M (1997) Inhibition of guinea pig detrusor contraction by NS-1619 is associated with activation of BKCa and inhibition of calcium currents. J Pharmacol Exp Thera 283(3): 1193–1200). Male Sprague-Dawley rats (Charles River, Wilmington, Mass.; 200–400 grams) are euthanized by CO2 inhalation and exsanguination. Their urinary bladders are rapidly removed and placed in 37° C. physiological solution with the following composition (mM): Na glutamate (80.0), NaCl (54.7), KCl (5.0), NaHCO3 (25.0), MgCl2.2H2O (2.5), D-glucose (11.8) and CaCl2 (0.2) gassed with O2—CO2, 95%/5% for a final pH of 7.4. The dome of the bladder is isolated from the trigone region and the mucosa is removed. This tissue is then cut into 2–3 mm wide strips and placed into fresh buffer for 1 hour. Tissues are then transferred into 10 ml of an isolation buffer containing the above composition plus collagenase type VIII (1.0 mg/ml) and pronase (0.25 mg/ml). After 10 minutes the isolation buffer is replaced with fresh isolation buffer for an additional 10 min. The tissue is then washed 3 times in fresh collagenase and pronase free solution and stored at room temperature until studied. Cells for study are prepared by triturating 1–2 pieces of detrusor tissue in 2 ml of fresh isolation buffer for 5 minutes with a polished Pasteur pipette, (tip diameter ˜1.5 mm) attached to a modified Harvard Respirator pump (Harvard Apparatus, Southnatic, Mass.) at a rate of 20×/min. with an approximate volume of 5 ml. Cells are then placed on a microscope stage in a temperature regulated tissue bath at 32.5° C. and continually superfused with PSS.
(§2) Single cell recordings are performed with a List-Medical EPC-7 patch clamp amplifier (Adams & List Assoc., Westbury, N.Y.). Pipette electrodes had tip resistances of 2–4 MΩ and are filled with the following composition (mM): KCl (126.0), MgCl2.6H2O (4.5), ATP Mg salt (4.0), GTP tris salt (0.3), creatine PO4 (14.0), D-glucose (9.0), EGTA (9.0), HEPES (9.0). The pH is adjusted to 7.4 with KOH. Signals are acquired (3 kHz high frequency cut-off, 12 bit resolution) using a 586-based personal computer.
Cell resting membrane potential (RMP) is measured in current clamp using the above mentioned instrumentation and pipette solutions. For these experiments nystatin is also added to the pipette solution (100 μg/ml) to allow recording through utilization of the perforated patch technique (Korn, et al, 1991). […] After this time, various antagonists (linopirdine, XE-991) are added to the perfusate and RMP is recorded for an additional 5 minutes. […]

Test [3] has the same test system. Briefly: Voltage clamp recording of outward current, rat cells. In kind it is cell-based.
Text: as §1, §2
Whole cell recordings are made using broken patch access. Currents are evoked using either voltage steps (Vh=−50; Vt=−60 to 40 mV) or voltage ramps (−60 to 40 mV at 3.3 mV/sec.). The exact voltage clamp protocols are well known in the art. After stability is achieved control currents are recorded. Next, test compound is added to the superfusate. Currents are recorded for 5 to 10 minutes or until compound effects reach steady state. This is followed either by washout or addition of antagonists (linopirdine, XE-991) to the superfusate. […]

The test system of test [4] is cultured human bladder smooth muscle cells. Briefly: Voltage clamp recording of outward current, human cells. Format: cell-based. The conditions noted are these: XE-991 (10 μM in FIG. 3d). The protocol: as §2
Whole cell recordings are made using broken patch access. Currents are evoked using either voltage steps (Vh=−50; Vt=−60 to 40 mV) or voltage ramps (−60 to 40 mV at 3.3 mV/sec.). The exact voltage clamp protocols are well known in the art. After stability is achieved control currents are recorded. Next, test compound is added to the superfusate. Currents are recorded for 5 to 10 minutes or until compound effects reach steady state. This is followed either by washout or addition of antagonists (linopirdine, XE-991) to the superfusate.
Cellular electrophysiological studies were conducted using both voltage and current clamp techniques (Hammill, O., P., Marty, A., Neher, E., Sakmann, B. & Sigworth, F. J.: Improved patch-clamp techniques for high-resolution current recordings from cells and cell-free membrane patches. Pflugers Arch 391: 85–100 (1981)) from Sprague-Dawley rat (200–400 grams) bladders as previously described, (Wojdan, A., Freeden, C., Woods, M., Oshiro, G., Spinelli, W. et al., J. Pharmacol Exp Therap 289: 1410–1418 (1999)) and from a human bladder, primary cell culture (Colnetics, San Diego, Calif.). In rat cells, the average, control resting membrane potential (RMP) was −29.0±4.5 mV. […]
Rat bladder strips were isolated and prepared as previously described (Wojdan, A., Freeden, C., Woods, M., Oshiro, G., Spinelli, W. et al., J Pharmacol ExpTherap 289:1410–1418 (1999)). […] Message for KCNQ subunits was probed using quantitative rtPCR on an ABI PRISM 7700 Sequence Detection System (TAQMAN). […]

As for `O=C1c2ccccc2C(Cc2ccncc2)(Cc2ccncc2)c2ccccc21` [XE-991, 10,10-bis(4-pyridinylmethyl)-9(10H)-anthracenone], in test [1], the “antagonism of the effects of retigabine on bladder strip contractions” value was 94.8±17.5%. Moreover, the “reversal of retigabine-induced hyperpolarization” value in test [2] (10 μM XE-991 after 10 μM retigabine) was “completely reversed”. Moreover, the “effect on membrane potential relative to initial RMP” value in test [2] (10 μM XE-991 after retigabine) is given as “depolarized the cell below its initial RMP”. Moreover, the “reversal of retigabine-induced increase in outward current” value in test [3] (XE-991 10 μM) is reported as “partially reversed”. Moreover, the “reversal of retigabine-induced changes (hyperpolarization, outward current)” value in test [4] is on record as “partially reversed”.

In the case of `COc1ccc(Cl)cc1C(=O)NCCc1ccc(S(=O)(=O)NC(=O)NC2CCCCC2)cc1` [glyburide], the “reversal of the effects of retigabine on bladder strip contractions” value in test [1] (glyburide 10 μM) is listed as “not reversed”.

With `O=C1N(c2ccccc2)c2ccccc2C1(Cc1ccncc1)Cc1ccncc1` [linopirdine], in test [1], the “antagonism of the effects of retigabine on bladder strip contractions” value is 94.8±17.5%. Besides, in test [3] (linopirdine 50 μM), the “reversal of retigabine-induced increase in outward current” value is given as “partially reversed”.

Consider “iberiotoxin (QFTDVDCSVSKECWSVCKDLFGVDRGKCMGKKCRCYQ; UniProt P24663 1-37, looked up)”, for which the “sensitivity of retigabine-induced increase in outward current to blocker” value in test [3] (100 nM iberiotoxin) is recorded as “not sensitive”.
